A word on the IC50: it is the point on the concentration scale where inhibition reaches its midpoint.

Molecules are shown by their SMILES. Where only a bound is given, the exact number is not on record here.

One test has as its target JAK1 (Homo sapiens (Human), UniProt P23458). Nature of the test: Cellular JAK1 assay: IL-6-mediated STAT3 phosphorylation in TF-1 cells. It counts as cell-based. As to conditions: IL-6 stimulation, STAT3 phosphorylation at Tyr705 (AlphaLISA), read-out: Inhibitory Activity Against JAK1 IC50. The method, then:
The cellular potency of a compound on JAK1 or JAK2 inhibition is determined by measuring the cytokine-mediated phosphorylation of STAT proteins in TF-1 cells.
Human cytokines of IL-6 (R&D Systems, Cat. No. 206-IL-010/CF) and GM-CSF (R&D Systems, Cat. No. 215-GM-010/CF) are reconstituted at 10 μg/mL in D-PBS containing 0.1% BSA (Sigma, Cat. No. A8577) and human EPO (R&D Systems, Cat. No. 287-TC-500) at 500 U/mL in D-PBS containing 0.1% BSA. TF-1 cells (ATCC, CRL-2003) were grown in RPMI1640 (ATCC, Cat. No. 30-2001) supplemented with 2 ng/mL of recombinant human GM-CSF, 10% FBS (Gibco, Cat. No. 10437-028), and 100 U/mL penicillin-streptomycin (Gibco, Cat. No. 15140-122). The cells were maintained and propagated between 1×10^5 cells/mL to 7.5×10^5 cells/mL. Aliquots of the cells from early passages were preserved for liquid nitrogen storage. Frozen vials of the cells were thawed at 37° C. water bath. The cells were spun to remove freezing medium. The newly revived frozen cells were adapted in culture for 5-7 days before used for compound testing. The cells used in for compound testing were less than 20 subculture passages or 3 months in culture.
To test compounds, the TF-1 cells were harvested at a density of 3 to 7×10^5 cells/mL by centrifugation. After removing the culture medium, the resulting cell pellet was suspended and washed once by centrifugation with HBSS buffer (Gibco, Cat. No. 14025-092) containing 0.1% BSA. The cell pellet was resuspended in HBSS buffer at 7.5×10^6 cells/mL. Four micro-liters of the cells (3×10^4 cells in total) were added to each well of a white 384-well plate (Packard, Cat. No. 6005214).
The compounds were first diluted in dimethylsulfoxide (DMSO) (Sigma, Cat. No. D2650) to generate 9 3-fold diluted dosing concentrations in a 96-well polypropylene plate (Corning, Cat. No. 3365), followed by addition of HBSS buffer for another 125-fold dilution. To the cells, 2 μL of the diluted compounds were added and mixed by tapping the plate several times. The cells were incubated for 2 hrs of treatment. DMSO was used as a control and similarly diluted along and added to the cells.
To assay JAK1 inhibition, 2 μL of IL-6 diluted at 400 ng/mL (4×) in HBSS containing 0.1% BSA was added to the treated cells. The cells were then incubated for 30 min of cytokine treatment and lysed at the end by addition of 2 μL of 5×AlphaLISA SureFire Ultra lysis buffer from Perkin Elmer. The plate was agitated on a plate shaker for 10 min at room temperature. The cellular JAK1 activity was determined by measuring STAT3 phosphorylation at Tyr705 in lysates using the AlphaLISA SureFire Ultra kit (Perkin Elmer, Cat. No. ALSU-PST3-A500). A volume of 5 μL of acceptor mix and donor mix was added sequentially to lysates following the product protocol. The assay signals were recorded on EnVision plate reader (Perkin Elmer) with AlphaScreen optics setting.
The results are summarized in Table 3, where A represents a value no greater than 500 nM, B represents a value greater than 500 nM but no greater than 1 μM, C represents a value greater than 1 μM but no greater than 5 μM, and D represents a value greater than 5 μM.
For orientation: In Alpha technology, singlet oxygen from a donor bead excites a nearby acceptor bead.

Test [1] has as its target human Janus kinase 2 (JAK2), recombinant catalytic domain (Homo sapiens (Human), UniProt O60674). Nature of the test: LanthaScreen TR-FRET enzymatic assay, JAK2. It counts as biochemical. The conditions noted are these: for IC50: TR-FRET, 1 mM ATP, GFP-STAT1 substrate, read-out: Inhibitory Activity IC50 JAK2; for Selectivity JAK2/JAK1: ratio of IC50 against JAK2 over IC50 against JAK1. The method, then: (§1) The in vitro inhibition of recombinant human JAKs was determined as follow.
(§2) Compounds were tested in LANTHASCREEN™ time-resolved fluorescence energy transfer (TR-FRET) enzymatic assays from Invitrogen. The human Janus kinase 1 (JAK1) used in the assay is the recombinant JAK1 catalytic domain (amino acids 866-1154) expressed and purified from insect cells (Invitrogen, Cat. No. PV4774). The human Janus kinase 2 (JAK2) used in the assay is the recombinant JAK2 catalytic domain (amino acids 808-1132) expressed and purified from insect cells (Invitrogen, Cat. No. PV4210). The human Janus kinase 3 (JAK3) used in the assay is the recombinant JAK3 catalytic domain (amino acids 781-1124) expressed and purified from insect cells (Invitrogen, Cat. No. PV3855). The human tyrosine kinase 2 (TYK2) used in the assay is the recombinant TYK2 catalytic domain (amino acids 833-1187) expressed and purified from insect cells (Invitrogen, Cat. No. PV4790). The substrate is a recombinant STAT1 expressed as a fusion with GFP (Green Fluorescent Protein) to act as a physiological substrate (Invitrogen, Cat. No. PV5211).
(§3) Test compounds were prepared and diluted in DMSO in 3-fold serial dilutions for 10 doses to 100× of the final testing concentrations. The compounds were then further diluted to 4× by the kinase reaction buffer (Invitrogen, Cat. No. PV3189). The enzymatic reaction for compound testing was performed in a white 384-well polypropylene plate (Packard, Cat. No. 6005214) with a total reaction volume of 10 μL containing 440 ng/mL JAK1, 11 ng/mL JAK2, 400 ng/mL JAK3, or 200 ng/mL TYK2, 100 nM substrate, and 1 mM ATP. The assay started with loading 2.5 μL of JAK1, JAK2, JAK3, or TYK2 diluted in the kinase reaction buffer to wells, followed by addition of an equal volume of 4× compounds for 15-min incubation at room temperature for pre-treatment. The enzymatic reaction was initiated by addition of 5 μL of a mixture of the substrate and ATP prepared in the kinase reaction buffer. After one hour reaction, 10 μL mixture of EDTA (final 10 mM) and terbium-labeled anti-pSTAT1 (pTyr701) antibody (final 2 nM) (Invitrogen, Cat. No. PV4844) prepared in TR-FRET antibody dilution buffer (Invitrogen, Cat. No. PV3574) was added to stop the enzymatic reaction and produce TR-FRET signals. After 30 minutes of incubation at room temperature, the plate was read in Tecan Infinite F200 Pro with the following settings: Excitation 340 nm (30)/Emission1 495 nm (10)/Emission2 520 nm (25). The TR-FRET values were dimensionless numbers that were calculated as the ratio of the acceptor ([…]) signal to the donor (Terbium) signal. Percent of inhibition was calculated as (100%−percentage of compound-treated/DMSO vehicle-treated). The dose-response curves were generated and the IC50s were calculated by nonlinear sigmoid curve fitting using GraphPad Prism.
(§4) In Table 1, A represents a value no greater than 500 nM, B represents a value greater than 500 nM but no greater than 1 μM, C represents a value greater than 1 μM but no greater than 5 μM, and D represents a value greater than 5 μM. In Table 2, A′ represents a ratio of greater than 8, B′ represents a ratio of no greater than 8 but no less than 4, C′ represents a ratio of no greater than 4 but no less than 2, and D′ represents a ratio of no greater than 2. The selectivity is expressed as a ratio of the IC50 values of a compound against two kinases to be compared.
(In general: TR-FRET usually uses a lanthanide donor and a delayed reading to cut background.)

The target of test [2] is human Janus kinase 1 (JAK1), recombinant catalytic domain (Homo sapiens (Human), UniProt P23458). Nature of the test: LanthaScreen TR-FRET enzymatic assay, JAK1. Type of test: biochemical. As to conditions: 1 mM ATP, GFP-STAT1 substrate, read-out: Inhibitory Activity IC50 JAK1. The protocol:
as §1, §2, §3, §4

In test [3] the test system is human Janus kinase 3 (JAK3), recombinant catalytic domain. Nature of the test: LanthaScreen TR-FRET enzymatic assay, JAK3. Type of test: biochemical. As to conditions: ratio of IC50 against JAK3 over IC50 against JAK1. The protocol: as §1, §2, §3, §4
Test [4] has as its target human Janus kinase 3 (JAK3), recombinant catalytic domain (Homo sapiens (Human), UniProt P52333). Nature of the test: LanthaScreen TR-FRET enzymatic assay, JAK3. It counts as biochemical. The conditions noted are these: TR-FRET, 1 mM ATP, GFP-STAT1 substrate; read-out: Inhibitory Activity IC50 JAK3. The protocol:
as §1, §2, §3, §4

The test system of test [5] is human tyrosine kinase 2 (TYK2), recombinant catalytic domain. Description: LanthaScreen TR-FRET enzymatic assay, TYK2. It counts as biochemical. The conditions noted are these: ratio of IC50 against TYK2 over IC50 against JAK1. The protocol: as §1, §2, §3, §4
The target in test [6] is human tyrosine kinase 2 (TYK2), recombinant catalytic domain (Homo sapiens (Human), UniProt P29597). Nature of the test: LanthaScreen TR-FRET enzymatic assay, TYK2. Type of test: biochemical. The conditions noted are these: TR-FRET, 1 mM ATP, GFP-STAT1 substrate; read-out: Inhibitory Activity IC50 TYK2. The method, then:
as §1, §2, §3, §4

Chain of human tyrosine kinase 2 (TYK2), recombinant catalytic domain (Homo sapiens (Human), UniProt P29597) (P29597 833-1187): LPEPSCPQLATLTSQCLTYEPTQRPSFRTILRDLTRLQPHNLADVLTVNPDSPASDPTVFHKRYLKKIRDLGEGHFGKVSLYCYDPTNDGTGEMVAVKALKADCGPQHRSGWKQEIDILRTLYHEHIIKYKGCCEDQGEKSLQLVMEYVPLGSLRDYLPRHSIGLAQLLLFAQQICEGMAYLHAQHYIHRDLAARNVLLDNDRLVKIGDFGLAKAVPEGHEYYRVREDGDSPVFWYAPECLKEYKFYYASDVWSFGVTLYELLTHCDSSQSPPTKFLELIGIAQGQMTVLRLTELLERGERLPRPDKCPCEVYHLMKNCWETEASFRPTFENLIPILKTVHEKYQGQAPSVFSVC
Chain of human Janus kinase 2 (JAK2), recombinant catalytic domain (O60674 808-1132): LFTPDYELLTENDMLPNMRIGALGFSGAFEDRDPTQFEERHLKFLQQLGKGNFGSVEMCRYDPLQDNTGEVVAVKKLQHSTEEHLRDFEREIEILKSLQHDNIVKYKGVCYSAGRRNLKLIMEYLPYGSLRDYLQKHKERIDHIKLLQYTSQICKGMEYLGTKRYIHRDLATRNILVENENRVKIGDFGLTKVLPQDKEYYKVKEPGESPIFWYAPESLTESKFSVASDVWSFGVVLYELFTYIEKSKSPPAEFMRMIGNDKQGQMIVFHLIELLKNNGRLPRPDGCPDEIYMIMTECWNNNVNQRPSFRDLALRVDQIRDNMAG
Chain of human Janus kinase 1 (JAK1), recombinant catalytic domain (P23458 866-1154): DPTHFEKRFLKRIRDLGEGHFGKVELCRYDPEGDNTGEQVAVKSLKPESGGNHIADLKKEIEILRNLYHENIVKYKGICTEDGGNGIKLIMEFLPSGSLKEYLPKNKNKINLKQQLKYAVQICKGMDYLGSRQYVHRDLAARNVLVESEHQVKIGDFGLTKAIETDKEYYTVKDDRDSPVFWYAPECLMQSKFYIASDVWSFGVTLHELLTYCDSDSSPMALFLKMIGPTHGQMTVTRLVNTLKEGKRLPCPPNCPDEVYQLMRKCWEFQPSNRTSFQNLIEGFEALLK
Chain of human Janus kinase 3 (JAK3), recombinant catalytic domain (Homo sapiens (Human), UniProt P52333) (P52333 781-1124): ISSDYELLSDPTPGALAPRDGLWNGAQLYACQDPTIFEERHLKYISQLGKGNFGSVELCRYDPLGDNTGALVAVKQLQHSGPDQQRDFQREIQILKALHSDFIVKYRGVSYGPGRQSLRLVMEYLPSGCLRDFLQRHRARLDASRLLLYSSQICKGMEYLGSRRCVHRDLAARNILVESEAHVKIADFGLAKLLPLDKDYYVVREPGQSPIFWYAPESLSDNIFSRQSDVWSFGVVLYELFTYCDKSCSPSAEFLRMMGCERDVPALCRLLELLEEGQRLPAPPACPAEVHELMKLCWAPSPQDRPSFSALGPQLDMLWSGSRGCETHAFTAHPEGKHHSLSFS
Chain of JAK1 (P23458 whole entry): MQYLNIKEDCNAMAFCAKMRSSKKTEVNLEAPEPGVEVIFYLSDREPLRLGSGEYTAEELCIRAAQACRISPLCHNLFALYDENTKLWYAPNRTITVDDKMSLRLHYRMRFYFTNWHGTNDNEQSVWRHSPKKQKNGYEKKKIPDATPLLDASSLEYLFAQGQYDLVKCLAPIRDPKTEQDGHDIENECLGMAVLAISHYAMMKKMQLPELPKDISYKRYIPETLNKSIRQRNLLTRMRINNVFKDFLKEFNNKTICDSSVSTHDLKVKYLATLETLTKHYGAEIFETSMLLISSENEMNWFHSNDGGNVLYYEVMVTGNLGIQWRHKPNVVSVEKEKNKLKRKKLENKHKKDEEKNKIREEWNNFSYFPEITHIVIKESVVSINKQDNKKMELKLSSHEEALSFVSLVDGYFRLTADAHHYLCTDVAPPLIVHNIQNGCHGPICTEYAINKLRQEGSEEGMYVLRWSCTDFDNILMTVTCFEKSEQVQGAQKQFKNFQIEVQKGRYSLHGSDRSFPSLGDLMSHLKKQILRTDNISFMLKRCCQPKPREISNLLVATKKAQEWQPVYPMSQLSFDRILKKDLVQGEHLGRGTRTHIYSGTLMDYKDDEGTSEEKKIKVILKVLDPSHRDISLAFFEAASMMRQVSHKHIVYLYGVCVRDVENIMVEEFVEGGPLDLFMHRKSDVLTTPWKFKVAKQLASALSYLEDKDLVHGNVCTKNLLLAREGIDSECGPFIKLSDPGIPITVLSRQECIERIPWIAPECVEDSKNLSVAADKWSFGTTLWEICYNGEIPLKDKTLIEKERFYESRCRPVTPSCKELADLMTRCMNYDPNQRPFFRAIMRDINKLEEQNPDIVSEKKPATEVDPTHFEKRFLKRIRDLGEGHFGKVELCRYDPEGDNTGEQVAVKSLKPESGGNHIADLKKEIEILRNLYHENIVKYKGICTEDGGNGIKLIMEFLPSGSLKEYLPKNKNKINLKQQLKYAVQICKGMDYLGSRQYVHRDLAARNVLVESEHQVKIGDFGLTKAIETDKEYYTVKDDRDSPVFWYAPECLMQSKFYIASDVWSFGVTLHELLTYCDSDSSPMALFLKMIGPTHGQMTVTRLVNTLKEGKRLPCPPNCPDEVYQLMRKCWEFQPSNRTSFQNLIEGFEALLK

For the compound `CC1(C)CN(C(=O)c2ccc(-c3cccc4nc(NC(=O)C5CC5)cn34)cc2F)C1` [Compound 24], the IC50 at JAK1 is at most 500 nM; in test [1], 1000 to 5000 nM; in test [2] it was at most 500 nM; in test [4], over 5000 nM; in test [6] it was 1000 to 5000 nM. Moreover, in test [1], the “Selectivity JAK2/JAK1” value is recorded as “A′ (A′ represents a ratio of greater than 8)”. Besides, the “Selectivity JAK3/JAK1” value in test [3] is “A′ (A′ represents a ratio of greater than 8)”. The “Selectivity TYK2/JAK1” value in test [5] is “A′ (A′ represents a ratio of greater than 8)”.

Take `O=C(Nc1cn2c(-c3ccc(CN4CCS(=O)(=O)CC4)cc3)cccc2n1)C1CC1` [Compound 1, N-(5-(4-((1,1-Dioxo-1-thiomorpholino)methyl)phenyl)imidazo[1,2-a]pyridin-2-yl) cyclopropanecarboxamide]: the IC50 on JAK1 is at most 500 nM; in test [1] it was 1000 to 5000 nM; in test [2] it was at most 500 nM; in test [4], over 5000 nM; in test [6] it was 1000 to 5000 nM. The “Selectivity JAK2/JAK1” value in test [1] is “A′ (A′ represents a ratio of greater than 8)”. The “Selectivity JAK3/JAK1” value in test [3] is on record as “A′ (A′ represents a ratio of greater than 8)”. In addition, in test [5], the “Selectivity TYK2/JAK1” value is recorded as “A′ (A′ represents a ratio of greater than 8)”.

On to `O=C(Nc1cn2c(-c3ccc(NS(=O)(=O)C4CC4)cc3)cccc2n1)C1CC1` [Compound 30], for which the IC50 at JAK1 was at most 500 nM; in test [1], 500 to 1000 nM; in test [2], at most 500 nM; in test [4], over 5000 nM; in test [6] it was at most 500 nM. For the same compound, the “Selectivity JAK2/JAK1” value in test [1] is listed as “A′ (A′ represents a ratio of greater than 8)”. For the same compound, the “Selectivity JAK3/JAK1” value in test [3] is reported as “A′ (A′ represents a ratio of greater than 8)”. Besides, the “Selectivity TYK2/JAK1” value in test [5] is given as “B′ (B′ represents a ratio of no greater than 8 but no less than 4)”.

As for `O=C(Nc1cn2c(-c3ccc(CN4CCS(=O)(=O)CC4)c(F)c3)cccc2n1)C1CC1` [Compound 28], the IC50 on JAK1 is at most 500 nM; in test [1], 500 to 1000 nM; in test [2], at most 500 nM; in test [4], over 5000 nM; in test [6], 500 to 1000 nM. Besides, in test [1], the “Selectivity JAK2/JAK1” value is “A′ (A′ represents a ratio of greater than 8)”. The “Selectivity JAK3/JAK1” value in test [3] was “A′ (A′ represents a ratio of greater than 8)”. Besides, in test [5], the “Selectivity TYK2/JAK1” value was “A′ (A′ represents a ratio of greater than 8)”.

`CC1(C)CN(C(=O)c2ccc(-c3cccc4nc(NC(=O)C5CC5)cn34)cc2)C1` [Compound 17]: the IC50 on JAK1 is at most 500 nM; in test [1], 1000 to 5000 nM; in test [2], at most 500 nM; in test [4], over 5000 nM; in test [6], 1000 to 5000 nM. In test [1], the “Selectivity JAK2/JAK1” value is recorded as “A′ (A′ represents a ratio of greater than 8)”. In addition, the “Selectivity JAK3/JAK1” value in test [3] is on record as “A′ (A′ represents a ratio of greater than 8)”. In addition, the “Selectivity TYK2/JAK1” value in test [5] was “A′ (A′ represents a ratio of greater than 8)”.

As for `N#CCc1ccc(-c2cccc3nc(NC(=O)C4CC4)cn23)cc1F` [Compound 26], the IC50 was at most 500 nM on JAK1; over 5000 nM in test [1]; at most 500 nM in test [2]; over 5000 nM in test [4]; over 5000 nM in test [6]. Also, the “Selectivity JAK2/JAK1” value in test [1] is reported as “A′ (A′ represents a ratio of greater than 8)”. Moreover, the “Selectivity JAK3/JAK1” value in test [3] was “A′ (A′ represents a ratio of greater than 8)”. In test [5], the “Selectivity TYK2/JAK1” value is reported as “A′ (A′ represents a ratio of greater than 8)”.
